Experimental data reported in the supplement of paper PMC8882468.
± gives the standard deviation of the averaged measurements.

Legend:
Test in all cases: CTG-3D luminescence at 96 h relative to day-0 seeding control (ratio to day 0); higher = more growth / less cytotoxicity; PDxO 3D drug screen, 96 h, CTG-3D normalised to day-0 seeding control.
HCI-017.E2 = tested on: HCI-017.E2 (organoid from an ER-positive breast cancer xenograft)
HCI-002 = tested on: HCI-002 (organoid from a triple-negative breast cancer xenograft)
HCI-010 = tested on: HCI-010 (organoid from a breast cancer xenograft)
HCI-025 = tested on: HCI-025 (organoid from a breast cancer xenograft)
HCI-011.E2 = tested on: HCI-011.E2 (organoid from an ER-positive breast cancer xenograft)

CC[C@H](NC(=O)[C@H](C)NC)C(=O)N1C[C@@H](O)C[C@H]1Cc1c(-c2[nH]c3cc(F)ccc3c2C[C@@H]2C[C@H](O)CN2C(=O)[C@H](CC)NC(=O)[C@H](C)NC)[nH]c2cc(F)ccc12 [birinapant]
CTG-3D luminescence at 96 h
Conditions	12.5 pM	0.00025 µM	0.005 µM	0.1 µM	1 µM	10 µM	100 µM	625 fM
HCI-011.E2	1.4 ± 0.35	1.53 ± 0.32	1.16 ± 0.34	1.61 ± 0.51	1.34 ± 0.71	1.59 ± 0.43	0.956 ± 0.061	1.72 ± 0.18
HCI-017.E2	1.76 ± 0.14	2.26 ± 0.1	2.2 ± 0.28	2.01 ± 0.16	2.21 ± 0.09	2.12 ± 0.028	1.51 ± 0.092	2.35 ± 0.26

CTG-3D luminescence at 96 h
Conditions	12.5 pM	0.00025 µM	0.005 µM	0.1 µM	1 µM	10 µM	100 µM	625 fM
HCI-002, days in culture: 62	3.08	2.09	2.65	1.51	1.03	0.891	0.234	2.96
HCI-002, days in culture: 82	3	2.82	1.96	1.59	0.689	0.62	0.148	3.06
HCI-002, days in culture: 91	4.14	3.62	3.4	2.64	1.62	1.38	0.408	4.22
HCI-002, days in culture: 191	2.67	2.28	2.58	1.73	1.31	0.959	0.188	2.59
HCI-002, days in culture: 209	2.21	2.16	1.88	0.886	0.527	0.44	0.127	2.18
HCI-002, days in culture: 227	6.23	5.92	5.21	2.45	1.39	1.41	-0.1	6.13
HCI-010, days in culture: 52	2.04	2.47	2.12	2.26	1.6	1.52	1.05	2.18
HCI-010, days in culture: 65	1.7	1.59	1.72	1.47	1.43	1.23	0.618	1.66
HCI-010, days in culture: 103	3.3	3.66	3.43	2.74	2.62	2.1	0.973	2.9
HCI-011.E2, days in culture: 74	2.25	2.3	1.91	1.82	1.85	1.48	1.22	2.46
HCI-017.E2, days in culture: 85	3.2	2.88	2.45	2.38	2.5	1.82	1.64	2.6
HCI-025, days in culture: 172	2.24	1.37	1.16	0.15	0.319	0.166	0.0157	1.82
HCI-025, days in culture: 209	1.87	1.95	1.01	0.628	0.388	0.374	0.241	1.9
HCI-025, days in culture: 218	1.84	1.78	1.79	1.23	0.859	0.811	0.542	1.83

COc1cccc2c1C(=O)c1c(O)c3c(c(O)c1C2=O)C[C@@](O)(C(=O)CO)C[C@@H]3O[C@H]1C[C@H](N)[C@H](O)[C@H](C)O1 [doxorubicin]
CTG-3D luminescence at 96 h
Conditions	12.5 pM	0.00025 µM	0.005 µM	0.1 µM	1 µM	10 µM	100 µM	625 fM
HCI-011.E2	1.59 ± 0.072	1.65 ± 0.22	1.4 ± 0.2	1.98 ± 0.67	1.42 ± 0.53	0.122 ± 0.056	0.0255 ± 0.022	1.6 ± 0.29
HCI-017.E2	1.87 ± 0.07	2.06 ± 0.33	2.07 ± 0.17	1.89 ± 0.35	1.2724 ± 0.00052	0.484 ± 0.28	0.598 ± 0.11	2.26 ± 0.35

CTG-3D luminescence at 96 h
Conditions	12.5 pM	0.00025 µM	0.005 µM	0.1 µM	1 µM	10 µM	100 µM	625 fM
HCI-002, days in culture: 62	2.87	2.62	2.59	1.61	0.668	0.0335	0.00573	2.88
HCI-002, days in culture: 82	3.24	2.83	2.22	2.02	0.999	0.0349	0.0154	3.02
HCI-002, days in culture: 91	4.09	3.38	3.24	2.3	1.03	0.0844	0.0322	3.96
HCI-002, days in culture: 191	2.74	2.53	2.51	1.69	1.02	0.0535	0.00895	2.52
HCI-002, days in culture: 209	2.54	2.37	2.28	1.51	0.836	0.0193	0.00843	2.44
HCI-002, days in culture: 227	4.92	5.5	4.24	3.32	1.62	0.0266	-0.0178	5.72
HCI-010, days in culture: 52	2.23	2.37	2.52	1.93	0.497	0.271	0.0478	2.26
HCI-010, days in culture: 65	1.7	1.65	1.8	1.3	0.324	0.288	-0.000428	1.65
HCI-010, days in culture: 103	3.64	3.76	3.69	2.37	0.535	0.804	0.0524	3.28
HCI-011.E2, days in culture: 74	2.69	1.99	2.17	2.07	1.65	0.129	0.0309	2.14
HCI-017.E2, days in culture: 85	2.94	3.18	2.56	2.01	1.71	0.616	0.808	2.4
HCI-025, days in culture: 172	2.56	1.67	2.22	1.81	0.663	-0.00377	-0.0121	2.18
HCI-025, days in culture: 209	2.17	2.18	2.33	1.37	0.406	0.0188	-0.00838	1.45
HCI-025, days in culture: 218	1.71	1.89	1.74	1.66	0.23	0.0154	-0.0116	1.66

C/C=C1\NC(=O)[C@H]2CSSCC/C=C/[C@H](CC(=O)N[C@H](C(C)C)C(=O)N2)OC(=O)[C@H](C(C)C)NC1=O [romidepsin]
CTG-3D luminescence at 96 h
Conditions	12.5 pM	0.00025 µM	0.005 µM	0.1 µM	1 µM	10 µM	100 µM	625 fM
HCI-011.E2	1.55 ± 0.36	1.34 ± 0.47	0.559 ± 0.16	0.47 ± 0.17	0.382 ± 0.17	0.0141 ± 0.0054	-0.00792 ± 0.005	0.902 ± 0.2
HCI-017.E2	1.34 ± 0.22	1.36 ± 0.26	0.657 ± 0.14	0.298 ± 0.086	0.151 ± 0.047	0.033 ± 0.0062	-0.0104 ± 2.3e-05	1.17 ± 0.86

CTG-3D luminescence at 96 h
Conditions	12.5 pM	0.00025 µM	0.005 µM	0.1 µM	1 µM	10 µM	100 µM	625 fM
HCI-002, days in culture: 62	3.13	2.76	0.0634	-0.0198	-0.0112	-0.0609	-0.0931	3.1
HCI-002, days in culture: 82	3.16	3.38	0.0989	0.0435	0.0464	-0.0117	-0.0289	2.85
HCI-002, days in culture: 91	2.94	2.73	0.0516	0.028	0.0172	0.000373	-0.0143	2.7
HCI-002, days in culture: 191	3.33	3.23	-0.0284	-0.0636	-0.0937	-0.0909	-0.148	3.22
HCI-002, days in culture: 209	2.88	2.68	0.0167	-0.00615	-0.0397	-0.0225	-0.0845	2.84
HCI-002, days in culture: 227	5.16	4.82	0.108	0.0548	0.0335	0.0109	-0.0188	5.69
HCI-010, days in culture: 52	1.97	2.29	1.13	0.189	0.128	0.0169	-0.00333	1.81
HCI-010, days in culture: 65	1.32	1.34	0.941	0.326	0.276	0.0354	-0.00525	1.52
HCI-010, days in culture: 103	2.94	3.14	1.69	0.316	0.226	0.0082	-0.00621	2.77
HCI-011.E2, days in culture: 74	2.09	2.7	1.63	0.493	0.486	0.0744	-0.0129	1.63
HCI-017.E2, days in culture: 85	2.46	2.08	1.87	0.329	0.2	0.0715	-0.00898	2.18
HCI-025, days in culture: 172	1.84	1.14	1.58	-0.245	-0.354	-0.306	-0.318	1.48
HCI-025, days in culture: 209	1.99	2.87	1.48	0.312	0.313	0.034	-0.0293	1.94
HCI-025, days in culture: 218	1.5	2.01	0.886	-0.155	-0.189	-0.329	-0.306	1.84

NC(=O)c1cccc2cn(-c3ccc([C@@H]4CCCNC4)cc3)nc12 [niraparib]
CTG-3D luminescence at 96 h
Conditions	12.5 pM	0.00025 µM	0.005 µM	0.1 µM	1 µM	10 µM	100 µM	625 fM
HCI-011.E2	1.33 ± 0.58	1.59 ± 0.46	1.3 ± 0.5	1.76 ± 0.67	1.7 ± 0.66	1.55 ± 0.56	0.00155 ± 0.00027	1.465 ± 0.0099
HCI-017.E2	1.823 ± 0.015	1.66 ± 0.039	1.89 ± 0.088	1.61 ± 0.12	1.48 ± 0.024	1.58 ± 0.36	0.00319 ± 0.004	1.94 ± 0.13

CTG-3D luminescence at 96 h
Conditions	12.5 pM	0.00025 µM	0.005 µM	0.1 µM	1 µM	10 µM	100 µM	625 fM
HCI-002, days in culture: 62	3.51	3	3.42	2.62	1.36	0.533	-0.0877	3.34
HCI-002, days in culture: 82	3.5	3.51	2.69	2.16	1.29	0.381	-0.026	2.77
HCI-002, days in culture: 91	2.87	2.3	1.8	1.74	1.11	0.377	-0.0114	2.66
HCI-002, days in culture: 191	3.37	2.98	3.35	2.51	1.99	0.811	-0.139	3.21
HCI-002, days in culture: 209	2.84	2.96	2.54	1.96	1.18	0.302	-0.0818	2.86
HCI-002, days in culture: 227	4.63	5.21	4.64	3.79	2.08	0.87	-0.0133	5.51
HCI-010, days in culture: 52	1.94	2.41	2.17	2.55	2.02	0.332	0.006	2.06
HCI-010, days in culture: 65	1.44	1.78	1.88	1.63	1.54	0.382	0.000688	1.62
HCI-010, days in culture: 103	3.06	3.18	3.13	3.19	2.67	0.397	0.00829	2.94
HCI-011.E2, days in culture: 74	1.93	2.01	1.98	1.97	1.88	2.89	0.00301	1.92
HCI-017.E2, days in culture: 85	2.25	2.22	2.21	2.63	2.09	1.81	0.00236	1.95
HCI-025, days in culture: 172	2.92	1.82	3.92	2.04	2.08	0.426	-0.311	2.26
HCI-025, days in culture: 209	1.9	2.67	2.31	1.69	1.9	0.545	-0.0263	1.59
HCI-025, days in culture: 218	1.38	1.94	1.97	1.83	1.03	0.271	-0.304	1.62
